Experimental data taken from ChEMBL document CHEMBL1151716 (J Med Chem, 2008).
Converted amounts (≈) assume the structure as drawn. “And” between values parts separate entries of the source, which are not always exact repeats. Equal values may be shown once.

Columns and labels:
[1] = target: 3',5'-cyclic-AMP phosphodiesterase 4D (Homo sapiens, UniProt Q08499)
Description: Inhibition of full length human PDE4D2 expressed in Escherichia coli BL21 by liquid scintillation counting

[2] = target: High affinity 3',5'-cyclic-AMP phosphodiesterase 7A (Homo sapiens, UniProt Q13946); assay: Inhibition of human cloned PDE7A1 catalytic domain expressed in Escherichia coli BL21 by liquid scintillation counting
Chain of High affinity 3',5'-cyclic-AMP phosphodiesterase 7A (Q13946 whole entry, the tested form may be a part): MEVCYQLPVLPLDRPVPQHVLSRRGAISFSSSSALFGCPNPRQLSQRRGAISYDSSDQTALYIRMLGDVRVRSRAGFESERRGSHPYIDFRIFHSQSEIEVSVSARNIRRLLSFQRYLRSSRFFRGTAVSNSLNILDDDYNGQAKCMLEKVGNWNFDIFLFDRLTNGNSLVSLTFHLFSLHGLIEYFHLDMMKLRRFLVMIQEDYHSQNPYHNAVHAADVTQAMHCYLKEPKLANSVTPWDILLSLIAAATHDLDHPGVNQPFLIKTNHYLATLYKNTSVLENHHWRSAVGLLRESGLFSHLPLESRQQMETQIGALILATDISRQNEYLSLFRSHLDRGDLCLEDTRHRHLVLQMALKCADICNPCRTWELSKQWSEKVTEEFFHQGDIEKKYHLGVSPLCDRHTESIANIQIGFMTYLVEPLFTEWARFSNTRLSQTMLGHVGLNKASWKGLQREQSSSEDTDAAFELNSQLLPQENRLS

[3] = target: High affinity cGMP-specific 3',5'-cyclic phosphodiesterase 9A (Homo sapiens, UniProt O76083); assay: Inhibition of human cloned PDE9A2 expressed in Escherichia coli BL21 by liquid scintillation counting
Chain of High affinity cGMP-specific 3',5'-cyclic phosphodiesterase 9A (O76083 whole entry): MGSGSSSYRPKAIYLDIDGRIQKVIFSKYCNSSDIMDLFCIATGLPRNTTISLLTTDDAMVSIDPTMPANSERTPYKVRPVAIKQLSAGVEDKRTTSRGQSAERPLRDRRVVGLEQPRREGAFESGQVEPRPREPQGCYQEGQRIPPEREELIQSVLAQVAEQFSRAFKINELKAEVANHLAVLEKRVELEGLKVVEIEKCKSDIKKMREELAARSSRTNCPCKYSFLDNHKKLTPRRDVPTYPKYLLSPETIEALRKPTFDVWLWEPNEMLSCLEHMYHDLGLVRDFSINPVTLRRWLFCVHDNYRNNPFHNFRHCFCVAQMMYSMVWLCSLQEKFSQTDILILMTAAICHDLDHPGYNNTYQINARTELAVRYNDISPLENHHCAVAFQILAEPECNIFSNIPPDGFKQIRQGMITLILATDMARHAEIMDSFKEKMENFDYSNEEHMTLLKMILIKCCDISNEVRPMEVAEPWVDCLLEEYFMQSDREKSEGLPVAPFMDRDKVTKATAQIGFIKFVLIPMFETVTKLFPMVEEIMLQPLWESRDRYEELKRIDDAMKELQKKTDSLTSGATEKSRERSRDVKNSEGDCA

[4] = target: cGMP-dependent 3',5'-cyclic phosphodiesterase (Homo sapiens, UniProt O00408); assay: Inhibition of human cloned PDE2A3 expressed in Escherichia coli BL21 by liquid scintillation counting
Chain of cGMP-dependent 3',5'-cyclic phosphodiesterase (O00408 whole entry): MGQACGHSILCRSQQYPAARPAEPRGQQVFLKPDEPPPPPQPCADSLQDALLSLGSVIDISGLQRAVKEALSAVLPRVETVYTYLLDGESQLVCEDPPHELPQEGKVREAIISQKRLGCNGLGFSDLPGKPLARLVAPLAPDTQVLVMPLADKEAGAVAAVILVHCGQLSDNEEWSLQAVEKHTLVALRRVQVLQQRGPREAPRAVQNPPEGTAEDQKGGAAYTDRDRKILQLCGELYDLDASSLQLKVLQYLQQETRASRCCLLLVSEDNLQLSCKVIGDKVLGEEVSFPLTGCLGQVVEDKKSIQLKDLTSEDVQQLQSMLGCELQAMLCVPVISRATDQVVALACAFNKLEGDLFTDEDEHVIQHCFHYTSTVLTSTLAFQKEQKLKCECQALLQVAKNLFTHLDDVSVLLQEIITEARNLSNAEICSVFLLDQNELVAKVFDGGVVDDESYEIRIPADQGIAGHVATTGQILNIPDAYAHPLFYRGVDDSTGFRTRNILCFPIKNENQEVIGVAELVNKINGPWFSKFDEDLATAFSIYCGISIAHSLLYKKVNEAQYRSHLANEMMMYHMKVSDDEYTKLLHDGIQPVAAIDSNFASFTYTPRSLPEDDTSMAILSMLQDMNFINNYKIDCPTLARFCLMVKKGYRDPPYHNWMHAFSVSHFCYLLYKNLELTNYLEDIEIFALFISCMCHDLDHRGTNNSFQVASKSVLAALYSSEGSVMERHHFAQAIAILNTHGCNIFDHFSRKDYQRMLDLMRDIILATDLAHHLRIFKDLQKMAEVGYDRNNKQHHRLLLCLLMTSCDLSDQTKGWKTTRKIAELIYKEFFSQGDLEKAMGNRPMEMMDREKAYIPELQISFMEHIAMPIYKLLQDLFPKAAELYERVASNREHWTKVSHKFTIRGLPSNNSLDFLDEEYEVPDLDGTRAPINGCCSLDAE

[5] = target: cGMP-specific 3',5'-cyclic phosphodiesterase (Homo sapiens, UniProt O76074); assay: Inhibition of human cloned PDE5A1 expressed in Escherichia coli BL21 by liquid scintillation counting
PBMC = assay: Inhibition of LPS-induced TNFalpha production in human PBMC; format: functional, cell-based
[6] = Solubility in heavy water; format: physicochemical

Chain of 3',5'-cyclic-AMP phosphodiesterase 4D (Q08499 whole entry, the tested form may be a part): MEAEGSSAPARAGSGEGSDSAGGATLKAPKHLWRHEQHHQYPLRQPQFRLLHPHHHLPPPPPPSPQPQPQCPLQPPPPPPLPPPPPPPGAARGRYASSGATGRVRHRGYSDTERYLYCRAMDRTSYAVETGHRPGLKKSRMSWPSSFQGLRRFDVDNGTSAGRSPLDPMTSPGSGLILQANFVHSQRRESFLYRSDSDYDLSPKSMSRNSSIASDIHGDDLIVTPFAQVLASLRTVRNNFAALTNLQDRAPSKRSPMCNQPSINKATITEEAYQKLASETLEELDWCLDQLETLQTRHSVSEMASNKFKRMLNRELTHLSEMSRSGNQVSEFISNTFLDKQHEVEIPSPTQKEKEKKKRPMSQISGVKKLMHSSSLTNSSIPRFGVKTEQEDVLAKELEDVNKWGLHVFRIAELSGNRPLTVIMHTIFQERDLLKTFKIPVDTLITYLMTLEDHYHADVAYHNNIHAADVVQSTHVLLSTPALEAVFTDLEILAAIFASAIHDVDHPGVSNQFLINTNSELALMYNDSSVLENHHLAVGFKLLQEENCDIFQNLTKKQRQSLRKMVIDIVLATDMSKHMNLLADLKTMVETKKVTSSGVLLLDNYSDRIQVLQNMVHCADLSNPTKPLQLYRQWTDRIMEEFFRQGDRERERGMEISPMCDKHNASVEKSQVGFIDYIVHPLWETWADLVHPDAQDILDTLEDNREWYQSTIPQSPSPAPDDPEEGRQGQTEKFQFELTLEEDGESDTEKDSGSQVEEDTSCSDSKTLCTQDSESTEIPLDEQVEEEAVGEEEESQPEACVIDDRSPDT

| SMILES | IC50 [1] | other results |
| --- | --- | --- |
| CCCOc1cc(C(=O)Nc2c(F)cccc2F)ccc1OC | 1.58 µM | – |
| COc1ccc(C(=O)Nc2ccccc2C(F)(F)F)cc1OC1CCCC1 | 3.09 µM | – |
| CCCCC(=O)c1ccc(OC)c(OC2CCOCC2)c1 | 0.72 µM | – |
| CCCC(=O)c1ccc(OC2CCOC2)c(OC)c1 (stereo not drawn) | 24 µM | – |
| CCCC(O)c1ccc(OC2CCOCC2)c(OC)c1 (stereo not drawn) | > 100 µM and 1510 µM | – |
| CCCCC(=O)c1ccc(OC2CCOCC2)c(OC)c1 | 71 µM | – |
| COc1ccc(C(=O)Nc2c(F)cccc2F)cc1OC1CCCCC1 | 0.398 µM | – |
| COc1ccc(C(=O)Nc2c(F)cccc2F)cc1O | 37.2 µM | – |
| CCCCC(=O)c1ccc(OC2CCN(C(=O)OC(C)(C)C)CC2)c(OC)c1 | 93 µM | – |
| CCCC(=O)c1ccc(OC2CCN(C(=O)OC(C)(C)C)CC2)c(OC)c1 | 29 µM | – |
| COc1ccc(C(=O)CCC2CCCCC2)cc1OC1CCOC1 (stereo not drawn) | 1.9 µM | – |
| CCCCC(=O)c1ccc(OC2CCOC2)c(OC)c1 (stereo not drawn) | 100 µM | – |
| COc1ccc(C(=O)c2cnc3ccccc3c2)cc1OC1CCOCC1 | 45 µM | – |
| CCCC(=O)c1ccc(OC)c(OC2CCOCC2)c1 | 3.5 µM | IC50 [2]: > 50 µM; IC50 [3]: > 50 µM; IC50 [4]: > 50 µM; IC50 [5]: > 50 µM |
| CCCCC(=O)c1ccc(OC)c(OC2CCOC2)c1 (stereo not drawn) | 0.22 µM | – |
| CCCC(=O)c1ccc(OC)c(OC2CCOC2)c1 (stereo not drawn) | 0.43 µM | – |
| CC(C)(C)C(=O)c1ccc(OC(F)F)c(OC2CCOC2)c1 (stereo not drawn) | 0.41 µM | – |
| COc1ccc(C(=O)CC(C)C)cc1OC1CCOC1 (stereo not drawn) | 0.19 µM and 0.178 µM | – |
| O=C(CCc1ccccc1)c1ccc(OC(F)F)c(OC(F)F)c1 | 0.82 µM | – |
| O=C(CC1CCCCC1)c1ccc(OC(F)F)c(OC(F)F)c1 | 5.2 µM | – |
| O=C(CCCc1ccccc1)c1ccc(OC(F)F)c(OC(F)F)c1 | 44 µM | – |
| COc1ccc(C(=O)CCC(C)C)cc1OC1CCOC1 (stereo not drawn) | 0.38 µM | – |
| COc1cc(C(CC(C)=O)c2cnc3ccccc3c2)ccc1Oc1ccccn1 (stereo not drawn) | 6 µM | IC50 [2]: > 50 µM; IC50 [3]: > 50 µM; IC50 [4]: > 50 µM; IC50 [5]: > 50 µM |
| COc1cc(C(CC(C)=O)c2cccnc2)ccc1O (stereo not drawn) | 80 µM | – |
| CCCCC(c1cccnc1)c1ccc(Oc2ccccn2)c(OC)c1 (stereo not drawn) | 10 µM | – |

| SMILES | IC50 [1] | other results |
| --- | --- | --- |
| O=C(CCC1CCCCC1)c1ccc(OC(F)F)c(OC2CCOC2)c1 (stereo not drawn) | 1.1 µM | – |
| O=C(CCc1ccccc1)c1ccc(OC(F)F)c(OC2CCOC2)c1 (stereo not drawn) | 0.18 µM | – |
| CCCC(=O)c1ccc(OC(F)F)c(Oc2ccccn2)c1 | 40 µM | – |
| CCCC(=O)c1ccc(OC(F)F)c(OC2CCOCC2)c1 | 0.35 µM | – |
| CC(C)CC(=O)c1ccc(OC(F)F)c(OC2CCOC2)c1 (stereo not drawn) | – | IC50 [2]: > 50 µM; IC50 [3]: > 50 µM; IC50 [4]: > 50 µM; IC50 [5]: > 50 µM; IC50 (PBMC): 40 nM |
| COc1ccc(C(=O)Nc2c(Cl)cccc2Cl)cc1OC1CCCC1 | 0.0282 µM | – |
| COc1ccc(C(=O)Nc2ccccc2Cl)cc1OC | 0.646 µM | – |
| CCCCC(=O)c1ccc(OC(F)F)c(OC2CCN(C(=O)OC(C)(C)C)CC2)c1 | 2.2 µM | – |
| O=C(CC1CCCCC1)c1ccc(OC(F)F)c(OC2CCOC2)c1 (stereo not drawn) | 0.667 µM | – |
| O=C(CCCc1ccccc1)c1ccc(OC(F)F)c(OC2CCOC2)c1 (stereo not drawn) | 0.636 µM | – |
| COc1ccc(C(=O)CC2CCCCC2)cc1OC1CCOC1 (stereo not drawn) | 2.6 µM | – |
| CCCCC(=O)c1ccc(OC)c(OC2CCNCC2)c1 | 102 µM | solubility [6]: 800 µM (≈ 233 µg/mL) |
| CCCCC(O)c1ccc(OC2CCOC2)c(OC)c1 (stereo not drawn) | > 100 µM and 398 µM | – |
| CCCC(O)c1ccc(OC2CCOC2)c(OC)c1 (stereo not drawn) | > 100 µM and 525 µM | – |
| CCCCC(O)c1ccc(OC)c(OC2CCOC2)c1 (stereo not drawn) | 10 µM | – |
| COc1ccc(C(=O)Nc2c(F)cccc2F)cc1OC1CCCC1 | 0.0708 µM | – |
| COc1ccc(C(=O)Nc2ccccc2F)cc1OC1CCCC1 | 10.7 µM | – |
| CCCCC(O)c1ccc(OC2CCOCC2)c(OC)c1 (stereo not drawn) | > 100 µM and 537 µM | – |
| CCCCC(=O)c1ccc(OC(F)F)c(OC2CCOC2)c1 (stereo not drawn) | 0.061 µM | – |
| CCCC(=O)c1ccc(OC2CCOCC2)c(OC)c1 | 60 µM | – |
| CC(C)CC(=O)c1ccc(OC(F)F)c(OC2CCCC2)c1 | 0.028 µM | IC50 (PBMC): 100 nM |
| COc1ccc(C(=O)CCc2ccccc2)cc1OC1CCOC1 (stereo not drawn) | 2.6 µM | – |
| CCCC(O)(c1ccc(Oc2ccccn2)c(OC)c1)c1cnc2ccccc2c1 (stereo not drawn) | 6 µM | IC50 [2]: 17 µM; IC50 [3]: > 50 µM; IC50 [4]: > 50 µM; IC50 [5]: 40 µM |
| COc1ccc(C(=O)CCCc2ccccc2)cc1OC1CCOC1 (stereo not drawn) | 2.29 µM | – |
| COc1ccc(C(=S)Nc2c(Cl)cccc2Cl)cc1OC1CCCC1 | 0.2 µM | – |
